Experiments:
Settings in all cases: 1 µM; binder
ALK = ALK (Homo sapiens, UniProt Q9UM73)
ANKK1 = ANKK1 (Homo sapiens, UniProt Q8NFD2)
ASK1 = ASK1 (Homo sapiens, UniProt Q99683)
CAMK4 = CAMK4 (Homo sapiens, UniProt Q16566)
CDK7 = CDK7 (Homo sapiens, UniProt P50613)
CDK9 = CDK9 (Homo sapiens, UniProt P50750)
CDKL1 = CDKL1 (Homo sapiens, UniProt Q00532)
CSNK1G1 = CSNK1G1 (Homo sapiens, UniProt Q9HCP0)
CSNK2A1 = CSNK2A1 (Homo sapiens, UniProt P68400)
DYRK1A = DYRK1A (Homo sapiens, UniProt Q13627)
EPHA3 = EPHA3 (Homo sapiens, UniProt P29320)
FGR = FGR (Homo sapiens, UniProt P09769)
FLT3(N841I) = FLT3(N841I) (Homo sapiens, UniProt P36888, N841I)
HIPK3 = HIPK3 (Homo sapiens, UniProt Q9H422)
LIMK2 = LIMK2 (Homo sapiens, UniProt P53671)
MAP3K3 = MAP3K3 (Homo sapiens, UniProt Q99759)
MAST1 = MAST1 (Homo sapiens, UniProt Q9Y2H9)
MKNK2 = MKNK2 (Homo sapiens, UniProt Q9HBH9)
MLK1 = MLK1 (Homo sapiens, UniProt P80192)
MST2 = MST2 (Homo sapiens, UniProt Q13188)
MST4 = MST4 (Homo sapiens, UniProt Q9P289)
PIK3CA(I800L) = PIK3CA(I800L) (Homo sapiens, UniProt P42336, I800L)
PKAC-alpha = PKAC-alpha (Homo sapiens, UniProt P17612)
PLK1 = PLK1 (Homo sapiens, UniProt P53350)
PRKCI = PRKCI (Homo sapiens, UniProt P41743)
SGK3 = SGK3 (Homo sapiens, UniProt Q96BR1)
SIK2 = SIK2 (Homo sapiens, UniProt Q9H0K1)
STK16 = STK16 (Homo sapiens, UniProt O75716)
TYRO3 = TYRO3 (Homo sapiens, UniProt Q06418)
WNK3 = WNK3 (Homo sapiens, UniProt Q9BYP7)
p38-alpha = p38-alpha (Homo sapiens, UniProt Q16539)
p38-alpha, sequence (Q16539 whole entry): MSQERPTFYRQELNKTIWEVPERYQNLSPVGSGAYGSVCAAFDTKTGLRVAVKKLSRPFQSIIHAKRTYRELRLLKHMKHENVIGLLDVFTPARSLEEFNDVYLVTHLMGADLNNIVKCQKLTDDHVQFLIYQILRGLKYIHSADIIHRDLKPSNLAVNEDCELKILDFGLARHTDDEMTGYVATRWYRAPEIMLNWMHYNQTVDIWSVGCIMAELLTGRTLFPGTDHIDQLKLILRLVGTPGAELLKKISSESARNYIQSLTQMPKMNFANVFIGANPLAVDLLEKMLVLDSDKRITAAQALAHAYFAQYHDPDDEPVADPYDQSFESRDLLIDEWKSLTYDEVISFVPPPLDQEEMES

SGK3, sequence (Q96BR1 whole entry): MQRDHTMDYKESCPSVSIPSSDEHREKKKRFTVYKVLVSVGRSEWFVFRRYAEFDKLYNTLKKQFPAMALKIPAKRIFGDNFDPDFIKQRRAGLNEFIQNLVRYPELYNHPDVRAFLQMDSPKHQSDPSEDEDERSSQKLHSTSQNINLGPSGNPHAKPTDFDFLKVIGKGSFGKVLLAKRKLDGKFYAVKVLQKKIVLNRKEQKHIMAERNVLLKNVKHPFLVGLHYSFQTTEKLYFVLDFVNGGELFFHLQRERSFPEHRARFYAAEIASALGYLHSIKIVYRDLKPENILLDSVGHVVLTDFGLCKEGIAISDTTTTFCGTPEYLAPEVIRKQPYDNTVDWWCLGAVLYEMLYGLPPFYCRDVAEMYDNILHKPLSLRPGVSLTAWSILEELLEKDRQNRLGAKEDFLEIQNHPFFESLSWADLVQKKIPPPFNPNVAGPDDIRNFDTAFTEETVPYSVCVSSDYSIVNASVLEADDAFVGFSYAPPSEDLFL
PIK3CA(I800L), sequence (P42336 whole entry I800L): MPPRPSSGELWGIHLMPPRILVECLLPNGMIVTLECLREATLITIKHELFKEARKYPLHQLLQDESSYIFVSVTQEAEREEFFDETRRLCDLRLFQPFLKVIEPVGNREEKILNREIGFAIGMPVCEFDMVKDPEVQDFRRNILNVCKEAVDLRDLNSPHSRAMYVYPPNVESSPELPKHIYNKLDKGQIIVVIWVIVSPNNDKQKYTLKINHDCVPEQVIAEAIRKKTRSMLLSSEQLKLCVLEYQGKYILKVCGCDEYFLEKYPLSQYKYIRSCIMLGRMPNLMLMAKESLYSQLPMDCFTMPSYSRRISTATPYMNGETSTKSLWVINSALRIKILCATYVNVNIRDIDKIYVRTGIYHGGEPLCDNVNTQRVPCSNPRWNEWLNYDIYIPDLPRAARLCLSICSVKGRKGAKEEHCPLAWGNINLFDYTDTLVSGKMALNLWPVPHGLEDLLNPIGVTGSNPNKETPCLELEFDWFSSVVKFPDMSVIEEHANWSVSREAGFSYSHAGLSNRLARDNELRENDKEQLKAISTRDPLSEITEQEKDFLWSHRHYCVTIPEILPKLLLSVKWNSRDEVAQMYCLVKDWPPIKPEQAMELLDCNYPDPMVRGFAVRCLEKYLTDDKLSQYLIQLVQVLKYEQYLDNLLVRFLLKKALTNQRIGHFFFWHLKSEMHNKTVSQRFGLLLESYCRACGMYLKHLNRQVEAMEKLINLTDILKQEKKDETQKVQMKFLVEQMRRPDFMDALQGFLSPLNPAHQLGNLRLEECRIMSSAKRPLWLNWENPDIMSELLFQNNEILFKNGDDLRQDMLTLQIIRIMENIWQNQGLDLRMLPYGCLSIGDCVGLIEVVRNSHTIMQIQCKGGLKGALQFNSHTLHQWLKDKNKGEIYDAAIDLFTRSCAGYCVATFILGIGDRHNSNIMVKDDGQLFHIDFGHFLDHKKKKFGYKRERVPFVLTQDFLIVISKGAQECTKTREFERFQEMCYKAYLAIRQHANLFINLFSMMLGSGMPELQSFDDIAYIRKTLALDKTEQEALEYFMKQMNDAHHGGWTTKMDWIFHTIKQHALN
MST4, sequence (Q9P289 whole entry): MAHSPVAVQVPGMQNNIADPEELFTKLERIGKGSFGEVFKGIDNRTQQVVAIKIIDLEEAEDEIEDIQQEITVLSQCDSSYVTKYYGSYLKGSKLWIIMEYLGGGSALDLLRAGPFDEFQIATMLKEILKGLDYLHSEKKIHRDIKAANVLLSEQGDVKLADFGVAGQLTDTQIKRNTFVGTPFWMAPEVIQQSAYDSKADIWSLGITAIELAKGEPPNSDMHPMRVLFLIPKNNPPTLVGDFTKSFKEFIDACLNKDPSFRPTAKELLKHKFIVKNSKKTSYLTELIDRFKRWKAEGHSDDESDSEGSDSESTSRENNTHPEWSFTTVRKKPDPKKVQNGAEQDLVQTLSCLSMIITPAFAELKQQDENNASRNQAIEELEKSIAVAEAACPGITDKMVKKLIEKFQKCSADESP
CSNK2A1, sequence (P68400 whole entry): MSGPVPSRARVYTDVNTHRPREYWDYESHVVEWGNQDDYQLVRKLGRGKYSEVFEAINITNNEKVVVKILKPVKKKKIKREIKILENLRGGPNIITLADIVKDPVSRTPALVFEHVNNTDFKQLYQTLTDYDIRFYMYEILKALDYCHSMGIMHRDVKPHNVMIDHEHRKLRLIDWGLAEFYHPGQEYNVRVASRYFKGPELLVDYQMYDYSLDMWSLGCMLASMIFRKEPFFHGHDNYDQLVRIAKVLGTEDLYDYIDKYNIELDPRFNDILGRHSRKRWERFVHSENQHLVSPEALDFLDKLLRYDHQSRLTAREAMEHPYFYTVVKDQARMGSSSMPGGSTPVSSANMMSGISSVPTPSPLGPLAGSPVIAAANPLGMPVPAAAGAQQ
PLK1, sequence (P53350 whole entry): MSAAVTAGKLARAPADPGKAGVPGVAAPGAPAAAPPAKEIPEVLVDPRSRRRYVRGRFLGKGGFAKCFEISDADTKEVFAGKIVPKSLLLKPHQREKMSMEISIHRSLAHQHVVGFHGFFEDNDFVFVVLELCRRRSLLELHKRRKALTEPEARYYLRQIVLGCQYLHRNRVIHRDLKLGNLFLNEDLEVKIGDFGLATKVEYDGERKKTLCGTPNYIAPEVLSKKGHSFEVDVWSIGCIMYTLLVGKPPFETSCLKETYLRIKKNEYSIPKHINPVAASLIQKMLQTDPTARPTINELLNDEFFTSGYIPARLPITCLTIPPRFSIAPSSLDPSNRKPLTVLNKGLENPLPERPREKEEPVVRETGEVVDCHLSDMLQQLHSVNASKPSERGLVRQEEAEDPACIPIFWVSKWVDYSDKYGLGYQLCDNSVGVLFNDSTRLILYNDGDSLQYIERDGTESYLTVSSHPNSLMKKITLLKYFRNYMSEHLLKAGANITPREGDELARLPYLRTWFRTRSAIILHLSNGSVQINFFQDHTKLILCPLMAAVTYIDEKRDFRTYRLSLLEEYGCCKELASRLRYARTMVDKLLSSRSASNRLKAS
TYRO3, sequence (Q06418 whole entry): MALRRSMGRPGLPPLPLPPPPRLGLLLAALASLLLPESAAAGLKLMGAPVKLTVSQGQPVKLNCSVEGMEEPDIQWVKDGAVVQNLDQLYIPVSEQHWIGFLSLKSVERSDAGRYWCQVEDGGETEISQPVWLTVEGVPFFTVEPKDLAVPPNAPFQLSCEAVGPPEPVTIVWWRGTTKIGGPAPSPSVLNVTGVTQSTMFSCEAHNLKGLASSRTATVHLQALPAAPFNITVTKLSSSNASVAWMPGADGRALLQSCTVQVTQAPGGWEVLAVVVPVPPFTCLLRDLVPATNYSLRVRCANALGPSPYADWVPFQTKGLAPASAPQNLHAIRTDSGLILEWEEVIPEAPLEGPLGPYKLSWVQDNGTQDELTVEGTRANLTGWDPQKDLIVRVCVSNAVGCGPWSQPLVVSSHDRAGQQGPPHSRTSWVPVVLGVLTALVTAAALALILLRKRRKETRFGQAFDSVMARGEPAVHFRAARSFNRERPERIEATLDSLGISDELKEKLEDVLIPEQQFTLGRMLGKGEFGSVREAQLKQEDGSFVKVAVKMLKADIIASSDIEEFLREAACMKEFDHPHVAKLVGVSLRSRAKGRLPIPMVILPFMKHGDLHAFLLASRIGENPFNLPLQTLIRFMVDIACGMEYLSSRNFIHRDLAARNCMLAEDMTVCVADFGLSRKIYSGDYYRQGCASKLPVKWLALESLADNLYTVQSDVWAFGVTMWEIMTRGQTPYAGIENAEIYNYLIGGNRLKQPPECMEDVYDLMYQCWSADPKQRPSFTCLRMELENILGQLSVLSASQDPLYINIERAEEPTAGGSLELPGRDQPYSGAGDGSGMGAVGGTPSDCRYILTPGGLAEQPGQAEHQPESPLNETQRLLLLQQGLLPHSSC
CSNK1G1, sequence (Q9HCP0 whole entry): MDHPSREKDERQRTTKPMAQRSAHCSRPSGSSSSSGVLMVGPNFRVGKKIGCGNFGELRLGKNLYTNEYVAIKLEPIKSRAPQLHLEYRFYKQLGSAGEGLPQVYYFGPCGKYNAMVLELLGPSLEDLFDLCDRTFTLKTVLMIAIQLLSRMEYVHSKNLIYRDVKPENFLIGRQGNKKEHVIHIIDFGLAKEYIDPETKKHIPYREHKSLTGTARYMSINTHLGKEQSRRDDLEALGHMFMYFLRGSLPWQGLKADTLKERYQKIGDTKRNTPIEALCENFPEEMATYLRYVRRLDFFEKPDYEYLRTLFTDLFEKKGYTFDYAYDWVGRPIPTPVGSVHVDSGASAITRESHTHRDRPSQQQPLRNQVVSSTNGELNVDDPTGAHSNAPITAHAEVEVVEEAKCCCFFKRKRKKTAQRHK
STK16, sequence (O75716 whole entry): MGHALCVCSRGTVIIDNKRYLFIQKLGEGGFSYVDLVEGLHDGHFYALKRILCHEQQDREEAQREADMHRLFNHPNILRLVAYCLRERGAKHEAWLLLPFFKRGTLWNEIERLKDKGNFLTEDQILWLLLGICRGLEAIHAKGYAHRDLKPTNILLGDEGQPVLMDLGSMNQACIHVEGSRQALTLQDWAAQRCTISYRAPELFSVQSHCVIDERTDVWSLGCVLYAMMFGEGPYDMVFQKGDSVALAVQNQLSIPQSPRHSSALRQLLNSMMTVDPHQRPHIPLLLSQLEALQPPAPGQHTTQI

CNc1ncc2cc(-c3ccc(-c4cccc(C)n4)cc3Cl)c(=O)n(C[C@H]3OC[C@H](N)CO3)c2n1 [compound 6, G-5555]
Percent Control (ALK): 84%
Percent Control (ANKK1): 87%
Percent Control (ASK1): 71%
Percent Control (CAMK4): 96%
Percent Control (CDK7): 86%
Percent Control (CDK9): 100%
Percent Control (CDKL1): 100%
Percent Control (CSNK1G1): 100%
Percent Control (CSNK2A1): 98%
Percent Control (DYRK1A): 100%
Percent Control (EPHA3): 88%
Percent Control (FGR): 100%
Percent Control (FLT3(N841I)): 97%
Percent Control (HIPK3): 100%
Percent Control (LIMK2): 100%
Percent Control (MAP3K3): 23%
Percent Control (MAST1): 0.4%
Percent Control (MKNK2): 97%
Percent Control (MLK1): 96%
Percent Control (MST2): 27%
Percent Control (MST4): 0%
Percent Control (PIK3CA(I800L)): 100%
Percent Control (PKAC-alpha): 100%
Percent Control (PLK1): 94%
Percent Control (PRKCI): 63%
Percent Control (SGK3): 60%
Percent Control (SIK2): 0.8%
Percent Control (STK16): 69%
Percent Control (TYRO3): 92%
Percent Control (WNK3): 100%
Percent Control (p38-alpha): 100%

— paper doi:10.1101/2021.04.08.439011v1 (biorxiv, 2021)
